Tests used:
[1] = target: T1, P-glycoprotein (P-gp, MDR1) (Homo sapiens, UniProt P08183); experiment: Bidirectional permeability and P-gp substrate assay in MDCKII-MDR1 cells; assay type: in vitro ADME; conditions: human, MDCK-MDR1, pH 7.4; efflux ratio, MDCKII-MDR1 cells; read-out: MDCKII-MDR1 B-A ratio
T1 construct: expressed in transfected cells; host or cells: MDCKII-MDR1 (Madin-Darby Canine Kidney clone II)
Procedure: Methods: A bidirectional permeability study was conducted to evaluate the apparent permeability (Papp) of therapeutic compounds. Additionally, the MDCKII-MDR1 cell line (Madin-Darby Canine Kidney clone II cell line heterologously expressing the human P-glycoprotein transporter) and mock cell line MDCKII were used to determine whether a compound acted as a P-gp substrate, in the absence and in the presence of a potent P-gp inhibitor. Test control items (digoxin, metoprolol, and atenolol) and control P-gp inhibitor (GF120918) stock solution were prepared in DMSO. Bidirectional assays (Apical to Basolateral [AB] and Basolateral to Apical [BA]) were run, in both the absence and presence of P-gp inhibitor GF120918 in MDCKII-MDR1 and mock cell line MDCKII, using as transport buffer HBSSH at a pH of 7.4 (n=3).
Compounds were tested at a single concentration (i.e. at […]) at one time point (i.e. 60 min). Alternative concentrations or time points may also be investigated. As reference compounds, digoxin (P-gp substrate), atenolol (low permeability) and metoprolol (high permeability) were included at a single concentration (e.g., 10 or […]) and at single time point (e.g., 60 min). Digoxin transport was evaluated in two directions (apical-to-basolateral [AB] and basolateral-to-apical [BA]) in the absence and presence of GF120918 or in mock cells, MDCKII (n=3). Atenolol and metoprolol were only tested in the AB direction in absence of P-gp inhibitor GF120918 or in mock cells, MDCKII (n=3). The integrity of the cell monolayer was evaluated after the permeability experiment using the paracellular permeability marker Lucifer yellow (LY) in the apical to basolateral direction in each well.
MDCKII or MDCKII-MDR1 cells were cultivated in DMEM (high glucose, GlutaMAXTM supplemented with pyruvate, 10% FBS HI and Pen/Strep). Cells were seeded onto microporous PET (Polyethylene Terephthalate) membranes in HTS 96-Multiwell Insert plates at a density of ˜175,000-245,000 cells/cm^2 (25000-35000 cells/well; 50 μL/well) in DMEM medium and incubated for 3-4 days at 37° C.-5% CO2. Medium was changed the day before the experiment.
Stock solutions of test items were prepared in DMSO at a concentration of 5 or 10 mM and stored at −20° C. until use. The potent P-gp inhibitor, GF120918 (stock solution 10 mM) and the reference controls digoxin, atenolol, metoprolol (stock solutions 3 or 10 mM) were prepared in DMSO and stored at −20° C. until use.
Donor working solutions of test items and reference controls were prepared at a concentration of 10 or 25 µM, diluting the stock solutions in HBSSH. Receiver working solutions contained transport buffer only. All working solutions were prepared such that the final concentration of DMSO was 1% (v/v). A donor working solution containing LY was also prepared in transport buffer at 100 µM.
MDCKII and MDCKII-MDR1 cells were preincubated (37° C., 15 to 30 minutes) in receiver working solutions containing transport buffer on apical (A) and basolateral (B) sides. Following pre-incubation, test items and control items (digoxin) transport were measured in two directions (apical to basolateral [AB]) and basolateral to apical [BA]), and these directions were performed in triplicate sets of wells, in both the absence and presence of […] GF120918 or mock MDCKII cells. For [AB] directional transport, 75 μL of donor working solution was added to the A (apical) compartment and 235 μL of receiver working solution was added to the B (basolateral) compartment. For [BA] directional transport, 235 μL donor working solution with test items or reference controls was added to the B compartment and 75 μL receiver working solution was added to the A compartment. Transport of permeability reference controls, atenolol and metoprolol, were measured in one direction (apical to basolateral [AB]) (n=3).
The cells were incubated (at 37° C., with shaking) for 60 minutes. […]

[2] = MDMA at doses of 100-125 mg, literature; cited from earlier work
DAT/SERT = conditions: Simmler et al., Br J Pharmacol. 2013; cited from earlier work

T1 sequence (P08183 whole entry): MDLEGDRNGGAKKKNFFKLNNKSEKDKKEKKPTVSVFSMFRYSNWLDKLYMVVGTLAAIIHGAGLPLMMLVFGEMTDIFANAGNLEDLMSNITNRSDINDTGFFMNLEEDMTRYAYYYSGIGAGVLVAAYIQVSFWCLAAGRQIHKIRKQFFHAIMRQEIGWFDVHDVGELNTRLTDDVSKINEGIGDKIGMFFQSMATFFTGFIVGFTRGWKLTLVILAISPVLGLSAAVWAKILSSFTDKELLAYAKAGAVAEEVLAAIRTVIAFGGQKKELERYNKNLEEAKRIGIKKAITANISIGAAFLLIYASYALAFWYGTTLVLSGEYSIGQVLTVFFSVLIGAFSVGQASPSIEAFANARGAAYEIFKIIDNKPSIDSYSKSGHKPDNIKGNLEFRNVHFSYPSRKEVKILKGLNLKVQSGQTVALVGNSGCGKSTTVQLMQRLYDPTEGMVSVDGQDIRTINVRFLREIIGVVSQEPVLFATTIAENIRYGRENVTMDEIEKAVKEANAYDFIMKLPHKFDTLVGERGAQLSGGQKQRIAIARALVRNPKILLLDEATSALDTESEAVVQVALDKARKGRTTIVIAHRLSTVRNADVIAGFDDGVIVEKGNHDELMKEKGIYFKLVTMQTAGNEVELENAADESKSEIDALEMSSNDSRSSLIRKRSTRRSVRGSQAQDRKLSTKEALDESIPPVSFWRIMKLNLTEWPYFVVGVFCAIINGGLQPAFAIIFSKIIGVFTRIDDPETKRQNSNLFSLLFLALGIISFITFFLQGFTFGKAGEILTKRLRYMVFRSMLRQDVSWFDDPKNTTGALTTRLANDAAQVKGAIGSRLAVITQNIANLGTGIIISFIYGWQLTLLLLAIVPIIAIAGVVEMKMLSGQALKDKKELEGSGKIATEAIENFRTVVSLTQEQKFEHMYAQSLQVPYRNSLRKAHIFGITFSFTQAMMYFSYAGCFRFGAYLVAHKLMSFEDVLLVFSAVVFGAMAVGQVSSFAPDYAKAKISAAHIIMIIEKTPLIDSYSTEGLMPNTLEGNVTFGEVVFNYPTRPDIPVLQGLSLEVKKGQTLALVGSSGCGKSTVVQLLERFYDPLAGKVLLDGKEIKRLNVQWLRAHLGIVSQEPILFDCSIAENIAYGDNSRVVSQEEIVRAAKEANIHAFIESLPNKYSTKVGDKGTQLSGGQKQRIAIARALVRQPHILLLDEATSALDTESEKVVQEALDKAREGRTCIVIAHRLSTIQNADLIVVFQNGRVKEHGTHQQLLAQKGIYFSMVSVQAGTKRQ

| SMILES | efflux ratio at 60 min [1] | increase in blood pressure (diastolic) [2] | increase in heart rate [2] | DAT/SERT ratio (DAT/SERT) |
| --- | --- | --- | --- | --- |
| COC(=O)c1ccc2c(c1)CC(N)C2 (centres unmarked) [CMP-405, 2-aminoindane-5-methylcarboxylate] | 1.1 | – | – | – |
| CNC(C)Cc1ccc2c(c1)OCO2 (centres unmarked) [MDMA] | – | 14.4-25 mmg | 26-30 bpm | 0.8 |
| COc1ccc2c(c1)CC(N)C2 (centres unmarked) [MEAI, 5-methoxy-2-aminoindane] | 1 | – | – | – |
